Measured values taken from patent US6380202B1, “Fungicidal fluoro-substituted 7-heterocyclyl-triazolopyrimidines” (BASF Aktiengesellschaft, priority 1998, dated 2002).
Converted amounts (≈) assume the structure as drawn. “And” between values parts separate entries of the source, which are not always exact repeats. Equal values may be shown once. Read-outs that look alike come from different tables or passages of the source.

Legend:
Leptosphaeria nodorum [1] = experiment: MIC serial dilution test, Leptosphaeria nodorum (LEPTNO); format: cell-based
Pyrenophora teres = format: cell-based
Alternaria solani = format: cell-based
Phytophthora infestans = format: cell-based; details: total inhibition of mycelial growth; V8 nutrient solution; 6-12 days incubation, 18-25° C.; visual inspection
[2] = test system: Magnaporthe grisea f. sp. oryzae; format: cell-based; details: total inhibition of mycelial growth; V8 nutrient solution; 6-12 days incubation, 18-25° C.; visual inspection
Botrytis cinerea = format: cell-based
Rhizoctonia solani = format: cell-based
Leptosphaeria nodorum [3] = experiment: Greenhouse test, Wheat Septoria nodorum (WSN); details: Foliar application, 2 day residual (inoculation 2 days after application)
[4] = test system: Erysiphe graminis DC. f.sp. tritici E. Marchal; details: in vivo
Puccinia recondita = details: in vivo
[5] = total inhibition of mycelial growth, V8 nutrient solution, 6-12 days incubation, 18-25° C., visual inspection
[6] = […], V8 nutrient solution, 6-12 days incubation, 18-25° C., visual inspection

Structure (SMILES)	MIC (Minimum Inhibitory Concentration) LEPTNO (Leptosphaeria nodorum [1]; [5])	MIC (Minimum Inhibitory Concentration) PYRNTE (Pyrenophora teres)	MIC (Minimum Inhibitory Concentration) ALTESO (Alternaria solani)	MIC (Minimum Inhibitory Concentration) PHYTIN (Phytophthora infestans)	MIC (Minimum Inhibitory Concentration) PYRIOR [2]	MIC (Minimum Inhibitory Concentration) BOTRCI (Botrytis cinerea; [6])	MIC (Minimum Inhibitory Concentration) RHIZSO (Rhizoctonia solani; [6])	Disease control (% efficacy) WSN 2 da R (Leptosphaeria nodorum [3]; 25 ppm)	Disease control (% efficacy) WSN 2 da R (Leptosphaeria nodorum [3]; 100 ppm)	Disease control (% efficacy) WPM 2 da R [4]	MIC (Minimum Inhibitory Concentration) ALTESO (Alternaria solani; [6])	MIC (Minimum Inhibitory Concentration) PYRNTE (Pyrenophora teres; [6])	Disease control (% efficacy) WLR 2 da C (Puccinia recondita)	Disease control (% efficacy) WLR 2 da R (Puccinia recondita)	MIC (Minimum Inhibitory Concentration) LEPTNO (Leptosphaeria nodorum [1])	MIC (Minimum Inhibitory Concentration) BOTRCI (Botrytis cinerea)	MIC (Minimum Inhibitory Concentration) RHIZSO (Rhizoctonia solani)
Fc1cccc(Cl)c1-c1c(Cl)nc2ncnn2c1N1CCCC(F)C1 (stereo not drawn) [Example 3, 5-chloro-6-(2-chloro-6-fluorophenyl)-7-N-(3-fluoropiperid-1-yl)-[1,2,4]triazolo[1,5-a]pyrimidine]	50 mg/mL (≈ 130 mM)	6.25 mg/mL (≈ 16.3 mM)	6.25 mg/mL (≈ 16.3 mM)	>100 mg/mL	6.25 mg/mL (≈ 16.3 mM)	12.5 mg/mL (≈ 32.5 mM)	50 mg/mL (≈ 130 mM)	0%	92%								
Fc1cc(F)c(-c2c(Cl)nc3ncnn3c2N2CCC(F)CC2)c(F)c1 [Example 1, 5-chloro-7-(4-fluoropiperid-1-yl)-6-(2,4,6-trifluorophenyl)-1,2,4-triazolo[1,5a]pyrimidine]	12.5 mg/mL (≈ 32.4 mM)	1.56 mg/mL (≈ 4.04 mM)		50 mg/mL (≈ 130 mM)	1.56 mg/mL (≈ 4.04 mM)	3.13 mg/mL (≈ 8.11 mM)	12.5 mg/mL (≈ 32.4 mM)	54%	100%	88% and 100%	0.2 mg/mL (≈ 0.518 mM)						
Fc1cccc(Cl)c1-c1c(Cl)nc2ncnn2c1N1CCC(F)(F)CC1 [Example 5, 5-chloro-6-(2-chloro-6-fluorophenyl)-7-N-(4,4-difluoropiperid-1-yl)-[1,2,4]triazolo[1,5-a]pyrimidine]	12.5 mg/mL (≈ 31.1 mM)			>100 mg/mL	0.2 mg/mL (≈ 0.497 mM)	50 mg/mL (≈ 124 mM)	>100 mg/mL	36%	98%	74% and 94% and 84%	<0.05 mg/mL	3.13 mg/mL (≈ 7.78 mM)	10% and 0%				
Fc1c(F)c(F)c(-c2c(Cl)nc3ncnn3c2N2CCCC(F)C2)c(F)c1F (stereo not drawn) [Example 4, 5-chloro-7-N-(3-fluoropiperid-1-yl)-6-(pentafluorophenyl)-[1,2,4]triazolo[1,5-a]pyrimidine]	50 mg/mL (≈ 119 mM)			100 mg/mL (≈ 237 mM)	1.56 mg/mL (≈ 3.7 mM)	12.5 mg/mL (≈ 29.6 mM)	6.25 mg/mL (≈ 14.8 mM)	0%	0%		3.13 mg/mL (≈ 7.42 mM)	12.5 mg/mL (≈ 29.6 mM)					
FCC1CCN(c2c(-c3c(F)cccc3Cl)c(Cl)nc3ncnn23)CC1 [Example 2, 5-chloro-7-(4-fluoromethylpiperid-1-yl)-6-(2-chloro-6-fluorophenyl)-1,2,4-triazolo[1,5a]pyrimidine]	>100 mg/mL			>100 mg/mL	0.78 mg/mL (≈ 1.96 mM)	3.13 mg/mL (≈ 7.86 mM)	>100 mg/mL	17%	83%		0.39 mg/mL (≈ 0.979 mM)	3.13 mg/mL (≈ 7.86 mM)		100%			
FCC1CCN(c2c(-c3c(F)cc(F)cc3F)c(Cl)nc3ncnn23)CC1 [Example 6, 5-chloro-7-N-(4-fluoromethylpiperid-1-yl)-6-(2,4,6-trifluorophenyl)-[1,2,4]triazolo[1,5-a]pyrimidine]		3.13 mg/mL (≈ 7.83 mM)	0.39 mg/mL (≈ 0.976 mM)	>100 mg/mL	0.78 mg/mL (≈ 1.95 mM)			63%	99%				100% and 98%	100%	>100 mg/mL	3.13 mg/mL (≈ 7.83 mM)	>100 mg/mL
